Measurements from patent EP0026672B1, “Immobilized lactase and its use in hydrolysing lactose” (SUMITOMO CHEMICAL COMPANY, LIMITED, priority 1979, dated 1981).

What was measured:
[1] = molecular target: T1, lactase obtained from a strain of Aspergillus oryzae (extracellular enzyme, unimmobilized) (Aspergillus oryzae, UniProt Q2UCU3); experiment: Km and Ki of the unimmobilized lactase, lactose hydrolysis; format: biochemical
T1 construct: the lactase obtained from a strain of Aspergillus oryzae having; host or cells: Aspergillus oryzae (natural producer)
T1 sequence (Q2UCU3 19-1005): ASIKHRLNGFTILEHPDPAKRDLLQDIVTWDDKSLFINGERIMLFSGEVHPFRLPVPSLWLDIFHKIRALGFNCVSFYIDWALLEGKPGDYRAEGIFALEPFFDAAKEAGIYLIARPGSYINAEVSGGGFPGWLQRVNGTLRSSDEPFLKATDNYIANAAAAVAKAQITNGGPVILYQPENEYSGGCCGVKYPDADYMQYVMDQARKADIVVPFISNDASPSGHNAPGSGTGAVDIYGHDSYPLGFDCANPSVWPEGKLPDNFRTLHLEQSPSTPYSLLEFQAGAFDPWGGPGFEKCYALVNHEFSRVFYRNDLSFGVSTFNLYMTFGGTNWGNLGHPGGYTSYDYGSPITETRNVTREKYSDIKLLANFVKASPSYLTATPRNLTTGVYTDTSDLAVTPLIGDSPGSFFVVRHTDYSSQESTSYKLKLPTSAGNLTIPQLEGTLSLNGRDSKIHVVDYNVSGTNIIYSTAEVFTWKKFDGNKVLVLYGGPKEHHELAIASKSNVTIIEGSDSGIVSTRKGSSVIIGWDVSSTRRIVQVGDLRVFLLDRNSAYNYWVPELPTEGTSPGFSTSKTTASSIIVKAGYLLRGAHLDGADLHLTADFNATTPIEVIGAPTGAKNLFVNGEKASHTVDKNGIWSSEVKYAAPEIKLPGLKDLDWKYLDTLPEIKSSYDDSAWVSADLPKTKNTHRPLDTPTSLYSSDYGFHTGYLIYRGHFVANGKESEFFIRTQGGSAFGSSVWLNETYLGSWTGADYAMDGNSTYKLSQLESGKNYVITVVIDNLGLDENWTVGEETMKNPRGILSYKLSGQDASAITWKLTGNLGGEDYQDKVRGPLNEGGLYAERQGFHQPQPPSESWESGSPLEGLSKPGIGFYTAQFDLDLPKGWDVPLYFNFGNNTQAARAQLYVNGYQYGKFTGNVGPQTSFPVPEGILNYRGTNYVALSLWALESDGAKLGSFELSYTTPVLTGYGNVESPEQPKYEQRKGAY
Protocol: Ki=7±4 mole/m^3 (0.007±0.004 molell) (pH 4.5, 30°C, substrate; lactose). It is believed that the characteristics of the lactase are well defined by the above data, and some other properties are given below:
In the present specification, 1 ILU is defined as the amount of lactase which produces 1 µ mole per minute of glucose at pH 4.5 at 30°C when a 13.3 w/v% of lactose solution is used as the substrate. The quantity of glucose thus prepared is defined by using glycose oxidase-peroxidase- dye system. When the measurement of the activity (unit) is carried out at a different pH or temperature, the pH or the temperature will specifically be given in each case.

[2] = molecular target: T2, immobilized lactase: Aspergillus oryzae lactase covalently attached (glutaraldehyde) on macroporous amphoteric phenol-formaldehyde ion-exchange resin (Aspergillus oryzae, UniProt Q2UCU3); experiment: Km and Ki of the immobilized lactase, general characteristics; format: biochemical; settings: pH 4.5, 30°C, substrate; lactose; value in brackets
T2 construct: the lactase originated from Aspergillus oryzae is immobilized on one of the carriers; host or cells: Aspergillus oryzae (natural producer)
Protocol: The immobilized lactase (0.1 to 0.3 ml) is suspended in a 0.05M acetate buffer solution (pH 4.5). To this solution, a solution of lactose in the same kind of buffer solution as above is added to give a 13.3 w/v % lactose solution. The solution was shaken at 30°C for 15 minutes with a shaker (100 rpm, shaking width; 3.5 cm). After the removal of the immobilized lactase by filtration, the content of the glucose in the filtrate is determined using glucose oxidase, peroxidase and dye system. The amount of the enzyme which produces 1 p mole of glucose in one minute is defined as 1 unit (1 ILU). The pH level and the temperature of the measurement of the activity will be stated in each case in the specification.

Structure (SMILES)	Km value ([1]; lactase dry powder of Example 3 (Shinnihon Kagaku Kogyo Co., 73 ILU/mg)) [mole/I]	Michaelis constant Km [2] [mole/I]	Ki ([1]; read-out: Inhibition constant by galactose Ki, pH 4.5, 30°C, substrate, lactose, value in brackets) [mM]	Inhibition constant by galactose Ki [2] [mM]
OC[C@H]1O[C@@H](O[C@H]2[C@H](O)[C@@H](O)C(O)O[C@@H]2CO)[C@H](O)[C@@H](O)[C@H]1O (stereo partly shown) [lactose]	0.11	0.15±0.1	–	–
OC[C@H]1OC(O)[C@H](O)[C@@H](O)[C@H]1O (stereo partly shown) [galactose]	–	–	7 ± 4	150 ± 100
